Assay results taken from patent publication US9499509B2, “Dihydrochalcone derivatives and their use as antibiotic agents” (UNIVERSITÉ DU QUÉBEC À CHICOUTIMI, priority 2012, dated 2016).
Values after ≈ are worked out from the molar mass of the structure shown.

Assays:
MRSA strains = assay: Antibiotic assay (absorption 660 nm, Example 2), MRSA strains; type: cell-based, Staphylococcus aureus
Method: (§1) Antibiotic agents. Gentamicin sulfate was provided by Calbiochem. Chloramphenicol was provided by Sigma-Aldrich.
(§2) Antibiotic assay. […] The bacteria strains were inoculated in nutrients broth. […] All bacteria were plated in nutrients broth at a concentration of 450 000 bacteria/m L.
(§3) Compounds IV to XXI were diluted in dimethylsulfoxide. […] The compounds were tested at 8 different concentrations.
(§4) Each well contained: 100 μL of bacteria, 100 μL of the compounds tested. The plates were incubated at 37° C. for 6 h. The absorption was read using a Varioskan flash multimode Reader™ (Thermo Scientific) at 660 nm.
(§5) MRSA. Ten (10) strains of MRSA obtained as described above were tested along with an S. aureus wild type (WT) strain (ATCC 25923).

[1] = system: S. aureus wild type strain (ATCC 25923); assay: Antibiotic assay (absorption 660 nm, Example 2), S. aureus wild type; type: cell-based, Staphylococcus aureus; settings: for MIC: S. aureus WT (ATCC 25923); for S. aureus WT ATCC 25923 (toxicity on bacteria): Table 7, same values as MIC of Table 6
Method: as §1, §2, §3, §4, §5

WS-1 cell lines = assay: Cytotoxicity assay on WS-1 (Example 2); type: cell-based; design: unit not given here; settings: Table 7; WS-1, 48 h
Method: Cytotoxicity assay. […] The WS-1 cell lines were provided by ATCC. […] The compounds tested were then added at 8 different concentrations. […] In Table 7, the therapeutic indexes of compounds IV to XXI are presented.

MIC (MRSA strains; MRSA 1)	MIC (MRSA strains; MRSA 2)	MIC (MRSA strains; MRSA 3)	MIC (MRSA strains; MRSA 4)	MIC (MRSA strains; MRSA 5)	MIC (MRSA strains; MRSA 6)	MIC (MRSA strains; MRSA 7)	MIC (MRSA strains; MRSA 8)	MIC (MRSA strains; MRSA 9)	MIC (MRSA strains; MRSA 10)	MIC [1]	SMILES	S. aureus WT ATCC 25923 (toxicity on bacteria) [1]	WS-1 (toxicity on normal cells, fibroblast) (WS-1 cell lines)
0.84 ± 0.04 µM (≈ 0.328 µg/mL)	1.50 ± 0.06 µM (≈ 0.586 µg/mL)	1.02 ± 0.06 µM (≈ 0.398 µg/mL)	2.6 ± 0.2 µM (≈ 1.02 µg/mL)	0.95 ± 0.01 µM (≈ 0.371 µg/mL)	2.11 ± 0.07 µM (≈ 0.824 µg/mL)	1.22 ± 0.04 µM (≈ 0.476 µg/mL)	1.35 ± 0.05 µM (≈ 0.527 µg/mL)	1.32 ± 0.04 µM (≈ 0.515 µg/mL)	1.23 ± 0.08 µM (≈ 0.48 µg/mL)	1.27 ± 0.06 µM (≈ 0.496 µg/mL)	O=C(CCc1ccccc1)c1c(O)cc(O)c2c1OC(c1ccc(O)cc1)CC2 (racemic) [IV]	1.27 ± 0.06	16 ± 2
2.9 ± 0.1 µM (≈ 1.22 µg/mL)	2.5 ± 0.1 µM (≈ 1.05 µg/mL)	1.7 ± 0.1 µM (≈ 0.715 µg/mL)	2.4 ± 0.2 µM (≈ 1.01 µg/mL)	2.0 ± 0.1 µM (≈ 0.841 µg/mL)	2.7 ± 0.1 µM (≈ 1.14 µg/mL)	2.13 ± 0.02 µM (≈ 0.896 µg/mL)	2.2 ± 0.5 µM (≈ 0.925 µg/mL)	2.5 ± 0.2 µM (≈ 1.05 µg/mL)	1.2 ± 0.2 µM (≈ 0.505 µg/mL)	2.2 ± 0.2 µM (≈ 0.925 µg/mL)	COc1ccc(CCC(=O)c2c(O)cc(O)c3c2OC(c2ccc(O)cc2)CC3)cc1 (racemic) [VII]	2.2 ± 0.2	26
2.9 ± 0.2 µM (≈ 1.18 µg/mL)	2.7 ± 0.1 µM (≈ 1.1 µg/mL)	7.8 ± 0.5 µM (≈ 3.17 µg/mL)	6.8 ± 0.7 µM (≈ 2.76 µg/mL)	2.7 ± 0.3 µM (≈ 1.1 µg/mL)	5.4 ± 0.4 µM (≈ 2.19 µg/mL)	2.0 ± 0.2 µM (≈ 0.813 µg/mL)	3.4 ± 0.3 µM (≈ 1.38 µg/mL)	2.9 ± 0.1 µM (≈ 1.18 µg/mL)	4.2 ± 0.8 µM (≈ 1.71 µg/mL)	3.2 ± 0.2 µM (≈ 1.3 µg/mL)	O=C(CCc1ccccc1)c1c(O)cc2c(c1O)CC(O)C(c1ccc(O)cc1)O2 (racemic) [XIII]	3.2 ± 0.2	10.1 ± 0.8
2.6 ± 0.1 µM (≈ 1.13 µg/mL)	2.4 ± 0.1 µM (≈ 1.05 µg/mL)	4.3 ± 0.4 µM (≈ 1.88 µg/mL)	2.9 ± 0.6 µM (≈ 1.27 µg/mL)	3.1 ± 0.6 µM (≈ 1.35 µg/mL)	2.8 ± 0.2 µM (≈ 1.22 µg/mL)	2.6 ± 0.1 µM (≈ 1.13 µg/mL)	2.7 ± 0.2 µM (≈ 1.18 µg/mL)	3.0 ± 0.3 µM (≈ 1.31 µg/mL)	2.56 ± 0.04 µM (≈ 1.12 µg/mL)	2.5 ± 0.1 µM (≈ 1.09 µg/mL)	COc1ccc(CCC(=O)c2c(O)cc(O)c3c2OC(c2ccc(O)cc2)C(O)C3)cc1 (racemic) [XIX]	2.5 ± 0.1	8.2 ± 1.0
5.6 ± 0.5 µM (≈ 2.28 µg/mL)	4.7 ± 0.4 µM (≈ 1.91 µg/mL)	5.1 ± 0.3 µM (≈ 2.07 µg/mL)	5.7 ± 0.4 µM (≈ 2.32 µg/mL)	4.1 ± 0.6 µM (≈ 1.67 µg/mL)	5.4 ± 0.7 µM (≈ 2.19 µg/mL)	3.5 ± 0.3 µM (≈ 1.42 µg/mL)	5.3 ± 0.6 µM (≈ 2.15 µg/mL)	4.8 ± 0.2 µM (≈ 1.95 µg/mL)	3.3 ± 0.1 µM (≈ 1.34 µg/mL)	5.9 ± 0.3 µM (≈ 2.4 µg/mL)	O=C(CCc1ccccc1)c1c(O)cc(O)c2c1OC(c1ccc(O)cc1)C(O)C2 (racemic) [XVI]	5.9 ± 0.3	>50
5.2 ± 0.4 µM (≈ 2.19 µg/mL)	5.7 ± 0.4 µM (≈ 2.4 µg/mL)	4 µM (≈ 1.68 µg/mL)	3 µM (≈ 1.26 µg/mL)	4 ± 2 µM (≈ 1.68 µg/mL)	9 ± 1 µM (≈ 3.78 µg/mL)	5.3 ± 0.2 µM (≈ 2.23 µg/mL)	–	5.3 ± 0.4 µM (≈ 2.23 µg/mL)	5.6 ± 0.5 µM (≈ 2.35 µg/mL)	5.3 ± 0.6 µM (≈ 2.23 µg/mL)	COc1cc(O)c(C(=O)CCc2ccc(O)cc2)c2c1CCC(c1ccc(O)cc1)O2 (racemic) [X]	5.3 ± 0.6	16 ± 4
7.7 ± 0.3 µM (≈ 3.24 µg/mL)	9 ± 1 µM (≈ 3.78 µg/mL)	6.25 ± 0.06 µM (≈ 2.63 µg/mL)	6.7 ± 0.2 µM (≈ 2.82 µg/mL)	6.9 ± 0.4 µM (≈ 2.9 µg/mL)	7.1 ± 0.9 µM (≈ 2.99 µg/mL)	5.2 ± 0.4 µM (≈ 2.19 µg/mL)	4.9 ± 0.2 µM (≈ 2.06 µg/mL)	3.7 ± 0.2 µM (≈ 1.56 µg/mL)	7.5 ± 0.7 µM (≈ 3.15 µg/mL)	8.0 ± 0.3 µM (≈ 3.36 µg/mL)	COc1ccc(CCC(=O)c2c(O)cc(O)c3c2O[C@@H](c2ccc(O)cc2)CC3)cc1 [IX]	8.0 ± 0.3	>50
